# Laboratory results: US20220323471A1 (priority 2019, published 2022)
# Where two headings read alike, the source gives them in different places.
# Key:
# [1] = system: endosomes and lysosomes of HT1080 cells; assay: Acridine Orange fluorescence, endosomal/lysosomal acidification; type: cell-based, human; conditions: 4 hours pre-incubation, DGP, diphyllin, 6DG 2, 1 or 0.1 μM, Bafilomycin 100 nM, NH4Cl 25 mM
# Protocol: To determine whether DGP inhibited ZIKV infection by preventing the acidification of endosomes and lysosomes, Acridine Orange (AO) was used, a cell-permeable fluorescent dye marker that accumulates in low pH compartments such as endosomes and lysosomes.
# HT1080 cells were pre-incubated for 4 hours with the Bafilomycin (FIG. 10A, 100 nM), NH4Cl (FIG. 10A, 25 mM), DGP (FIG. 10B: 2 μM, 1 μM, or 0.1 μM) diphyllin (FIG. 10C: 2 μM, 1 μM, or 0.1 μM), or 6DG (FIG. 10C: 2 μM, 1 μM, or 0.1 μM) to test whether DGP prevents endosomal/lysosomal acidification. After staining the cells with 1 μg/mL of AO, changes in fluorescence were measured using a Celesta flow cytometer on the PerCP-Cy5-5-A channel. A shift in the AO fluorescence is indicated with an arrow in FIGS. 10A-10D.
# Acridine Orange (Invitrogen) staining was performed as described previously (Kanzawa, T. et al. 2004, “Role of autophagy in temozolomide-induced cytotoxicity for malignant glioma cells.” Cell Death Differ 11(4): 448-457). Cells were stained with 1 μg/mL AO in 10% FBS DMEM for 30 min at 37° C. and then collected by trypsinization. Changes in fluorescence were measured using a Celesta flow cytometer in the PerCP-Cy5-5-A channel.
# ZIKV strain MR766 = ZIKV strain MR766 infection, 4G2 antibody flow cytometry; conditions: for IC50: Zika virus
# EBV RVP = type: cell-based, Ebola virus
# DENV1-RVP = type: cell-based, dengue virus; conditions: VERO cells; DGP 1 μM; NH4Cl 20 mM
# TBEV-RVP = type: cell-based, tick-borne encephalitis virus
# JEV-RVP = type: cell-based, Japanese encephalitis virus; conditions: VERO cells; DGP 1 μM; NH4Cl 20 mM
# Sendai Virus (SeV) = assay: Sendai Virus infection and IFN-β production in CHME3 cells; type: cell-based; conditions: SeV MOI 1 and 10, DGP 1 μM, NH4Cl 20 mM
# Protocol: The Flaviviridae family of viruses encode a glycoprotein that is necessary to achieve fusion at the endosomal/lysosomal membranes, the step that releases viral components into the cytoplasm. […] Instead, SeV fuses at the plasma membrane. To this end, IFN-β production and viral infection were measured in CHME3 cells infected with SeV at an MOI 1 and 10 in the presence of DGP (1 μM) or 20 mM NH4Cl.
# To detect viral copies of ZIKV and Sendai Virus (SeV) by qRT-PCR, cells were seeded in 24-well plates, with or without DGP treatment, and infected with the virus at the indicated MOI for 48 h. After the incubation period, total RNA from HT1080, VERO, and CHME3 cells was isolated and purified using Trizol (Invitrogen). For detection of ZIKV viral load in brain and spleen, 3 mice were sacrificed at 6 days post-infection and total RNA was extracted from the brain and spleen. For cDNA synthesis, 1 ng of total RNA was reverse transcribed. The reaction mixture included 1 mM of deoxyribonucleotide phosphates (dNTPs), 2 nM of the specific reverse primer of ZIKV or SeV, 1× M-MULV buffer, 10 U M-MuLV RT (BioLabs), and 2 U of RNase Inhibitor. The reaction mixture was incubated for 1 hour at 42° C. followed by 20 min at 65° C. to inactivate the enzyme. For actin detection, Oligo-dT was used to reverse transcribe total RNA.
# ZIKV RNA levels were measured using real-time PCR. HT1080 and VERO cells were challenged by ZIKV MR766 at an MOI of 1 in the presence of DGP. At 48 hours post-challenge, cells were lysed and total RNA was extracted using trizol. Total RNA was used to determine the levels of ZIKV RNA by real-time PCR using specific primers against ZIKA. qRT-PCR was carried out using SYBR green in a 20-μl final volume using a MASTERCYCLER proS machine. The primers used to detect ZIKV were: SEQ ID NO. 1: 5′-TT […]-3′-Forward (Genome Position 941-964) and SEQ ID NO. 2: 5′-[…]-3′-Reverse (Genome position 1123-1103) (AY632535.2). For the detection of SeV, the following primers were used: SEQ ID NO. 3: 5′-[…]-3′-Forward (Genome position 210-233) and SEQ ID NO. 4: 5′-[…]-3′-Reverse (Genome position 332-307) (M30202. Genome position 210-332) (Wagner, A. M. et al. 2003, “Detection of sendai virus and pneumonia virus of mice by use of fluorogenic nuclease reverse transcriptase polymerase chain reaction analysis.” Comp Med 53(2): 173-177). For the detection of IFN-β the following primers were used: SEQ ID NO. 5: Forward 5-[…]-3′ (Genome position 644-668) and SEQ ID Na 6: Reverse 5′-[…]-3′ (Genome position 718-697) (NM_002176.2) and for actin detection: SEQ ID NO. 7: 5′-[…]-′3-Forward and SEQ ID NO. 8: 5′-[…]′3-Reverse. ZIKA viral RNA levels were normalized to actin (upper panels). […]
# WNV-RVP = type: cell-based, West Nile virus; conditions: VERO cells; DGP 1 μM; NH4Cl 20 mM
# ZIKV = conditions: cited from earlier work
# [2] = system: HT1080, CHME3, VERO cells; assay: MTT cell viability assay; type: cell-based, human and monkey; conditions: human or monkey cells (HT1080, CHME3, VERO); 48 hours
# Protocol: Cell viability was determined by measuring the reduction of the tetrazolium dye MTT [3-(4,5-dimethylthiazol-2-yl)-2,5-diphenyltetrazolium bromide] to its insoluble form formazan. We treated 4×10^3 cells/well in a 96-well plate with serial dilutions of the indicated drugs. Human and monkey cells were incubated with DGP, diphyllin, or 6-deoxy-D-glucose for 48 hours at 37° C. After the incubation period, 10 μl MTT solution (5 mg/mL) was added to each well for an additional 4 hours at 37° C. Finally, the media was removed and dimethyl sulfoxide was added (200 μl/well) according to the manufacturer's instructions. The optical density was measured at 570 nm using a microplate reader. Experiments were performed in triplicates and standard deviations are shown. Mock-treated cells represent 100% viability.
smiles,measurement,setting,value
"C[C@@H](O)[C@@H](O)[C@H](O)[C@@H](O)C=O [Formula 6DG, 6-deoxyglucose, reference compound]",acidification of endosomes and lysosomes (AO fluorescence),[1],did not prevent
"Cl.N [NH4Cl, ammonium chloride, reference compound]",percentage of 4G2-positive cells,"ZIKV strain MR766; CHME3 cells, MOI 1, DGP 0.1 and 1 μM, NH4Cl 20 mM, 48 hours",substantial decrease
same,acidification of endosomes and lysosomes (AO fluorescence),[1],prevent endosomal and lysosomal acidification
same,EBV RVP infection,EBV RVP,inhibited infection
same,DENV1 RVP infection,DENV1-RVP,inhibited infection
same,TBEV RVP infection,TBEV-RVP,inhibited infection
same,JEV RVP infection,JEV-RVP,inhibited infection
same,IFN-β production in SeV-infected cells,Sendai Virus (SeV),increased induction
same,SeV infection / viral replication,Sendai Virus (SeV),increased viral replication
same,WNV RVP infection,WNV-RVP,inhibited infection
CCN(CC)CCCC(C)Nc1ccnc2cc(Cl)ccc12 (stereo not shown) [chloroquine],required inhibitory concentrations for ZIKV in cell culture,ZIKV,micromolar range
"COc1cc2c(O)c3c(c(-c4ccc5c(c4)OCO5)c2cc1OC)C(=O)OC3 [diphyllin, Diphyllin]",IC50,"ZIKV strain MR766; HT-1080, read-out: IC50, ZIKV infection",60 nM
same,IC50,"ZIKV strain MR766; read-out: IC50, ZIKV infection",210 nM
same,acidification of endosomes and lysosomes (AO fluorescence),[1],prevented the acidification of endosomes and lysosomes but to a lesser extent
same,toxicity at concentrations required to inhibit ZIKV infection (MTT),[2],not toxic
CCN(CCO)CCCC(C)Nc1ccnc2cc(Cl)ccc12 (stereo not shown) [hydroxychloroquine],required inhibitory concentrations for ZIKV in cell culture,ZIKV,micromolar range
